From publication PMC11312515, “Biochemical and Structural Characterization of a Novel Psychrophilic Laccase (Multicopper Oxidase) Discovered from Oenococcus oeni 229 (ENOLAB 4002)” (International Journal of Molecular Sciences, 2024)

T1: LcOe 229 (Oenococcus oeni, UniProt Q04HQ8)
T1 construct: gene OEOE_0009
T1 sequence (Q04HQ8 1-488): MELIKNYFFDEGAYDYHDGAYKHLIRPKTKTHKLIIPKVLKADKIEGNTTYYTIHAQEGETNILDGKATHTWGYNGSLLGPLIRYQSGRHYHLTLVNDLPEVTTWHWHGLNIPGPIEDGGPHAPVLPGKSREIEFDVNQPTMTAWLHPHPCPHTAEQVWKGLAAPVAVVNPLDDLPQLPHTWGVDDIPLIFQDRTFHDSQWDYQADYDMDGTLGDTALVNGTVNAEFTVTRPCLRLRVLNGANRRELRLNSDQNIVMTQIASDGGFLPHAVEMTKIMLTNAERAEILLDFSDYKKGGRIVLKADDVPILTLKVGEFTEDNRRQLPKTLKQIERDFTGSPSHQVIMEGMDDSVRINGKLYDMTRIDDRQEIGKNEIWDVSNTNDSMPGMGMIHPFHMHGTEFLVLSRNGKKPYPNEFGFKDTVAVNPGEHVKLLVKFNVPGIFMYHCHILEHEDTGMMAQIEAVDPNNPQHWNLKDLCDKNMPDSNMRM

B1: LcOe 229 (Oenococcus oeni PSU-1) (protein)
chain: T1 sequence (Q04HQ8 1-488)
notes: full length, 488 residues, 55544 Da, in pET-28a(+) NheI/BamHI, N-terminal His tag (thrombin-cleavable; cleavage told for crystallography), E. coli BL21(DE3)/pGro7; Ni-NTA; monomer; PCR fragment given as 1641 bp

Tests used:
LcOe 229 [1] = target: T1, LcOe 229; details: read-out: % residual activity at 1 mM
LcOe 229 [2] = target: T1, LcOe 229; type: biochemical; details: 2 mM ABTS, 0.1 mM CuSO4, McIlvaine buffer pH 2.5
[3] = substrate: COc1cccc(OC)c1O; experiment: oxidation followed at OD468, microplate, initial rates; type: biochemical, Oenococcus oeni; details: McIlvaine buffer pH 8, 24 °C, hyperbolic

| Molecule | remaining activity at 1000 µM (LcOe 229 [1]) | % residual activity at 1 mM (LcOe 229 [2]) | further results |
| --- | --- | --- | --- |
| c1ccc(-c2ccccn2)nc1 [2,2′-bipyridyl] | 94% | – | – |
| CCN=C=NCCCN(C)C [EDC] | – | observed with ZnCl2, EDTA, pargyline, EDC, deprenyl, clorgyline, and NaCl | – |
| C#CCN(C)CCCOc1ccc(Cl)cc1Cl [clorgyline] | – | observed with ZnCl2, EDTA, pargyline, EDC, deprenyl, clorgyline, and NaCl | – |
| NC1CC1 [cyclopropylamine] | 77% | – | – |
| C#CCN(C)C(C)Cc1ccccc1 (stereo not drawn) [deprenyl] | – | observed with ZnCl2, EDTA, pargyline, EDC, deprenyl, clorgyline, and NaCl | – |
| C#CCN(C)Cc1ccccc1 [pargyline] | – | observed with ZnCl2, EDTA, pargyline, EDC, deprenyl, clorgyline, and NaCl | – |
| C#CCN[C@@H]1CCc2ccccc21 [rasagiline] | 65% | – | – |
| NNC(N)=O [semicarbazide] | < 15% | – | – |
| B1 | – | – | Km [3]: 0.73 (±0.17) mM; Vmax [3]: 0.01 µmol/min/mg; kcat [3]: 0.01 s⁻¹; kcat/Km [3]: 10 M⁻¹ s⁻¹ |
